Results published in patent US11850283B2, “Liponucleotide-based therapy for asthma” (priority 2017, dated 2023).
“Also recorded” adds a separate entry of the source. Marks after values point to notes of the source that are not given here.

How the values were obtained:
[1] = test system: influenza A/WSN/33 (H1N1)-infected mice; test: Effect of influenza infection and i.p. liponucleotide treatment on lung function; type: in vivo, mouse; settings: for CST / HR (bpm) / RBASAL / SaO2 (%) / WET:DRY: day 6
Description: SaO2 increased from approximately 85% to approximately 96%. This is equivalent to an increase in PaO2 from approximately 65 mmHg to approximately 85 mmHg. It is also equivalent to an increase in O2 carrying capacity of blood (CaO2) from approximately 88% to approximately 97% of normal. Patients with an SaO2 of 96% or a […] would not require additional treatment

[2] = test system: ATII cells from influenza A/WSN/33 (H1N1)-infected mice; test: Effect of influenza infection and CDP-CHO treatment on ATII cell ultrastructure; type: in vivo, mouse
Description: FIG. 14 is a group of three transmission electron micrographs showing effects of CDP-CHO treatment on ultrastructure of ATII cell lamellar bodies (composed of surfactant lipids and proteins). Relative to mock-infected controls, lamellar bodies in ATII cells from influenza A/WSN/33 (H1N1)-infected mice are smaller and have disordered lamellae.
FIG. 15 is a group of 3 transmission electron micrographs showing effects of influenza infection on ultrastructure of ATII cell mitochondria (Mi). Relative to mock-infected controls (left), Mi in ATII cells from A/WSN/33 (H1N1)-infected mice (center) are fewer in number, less electron dense, and have disordered membranes and cristae.

influenza-infected mice = test: Effect of influenza infection and CDP-CHO treatment on lung inflammation; type: in vivo; settings: day 6; 100 μg/mouse i.p., daily from 1-5 days post-infection
[3] = test system: mitochondria, influenza-infected mice; test: Effect of influenza infection and CDP-CHO treatment on mitochondrial function; type: in vivo; settings: day 6; 100 μg/mouse i.p., daily from 1-5 days post-infection
[4] = test system: mouse model of asthma (dust mite/ragweed/Aspergillus fumigatus [DRA] triple antigen exposure); test: Airway hyperresponsiveness to methacholine (flexiVent) in DRA mouse model of asthma; type: in vivo, BALB/c mice
Experimental: (§1) To experimentally determine the efficacy of the liponucleotides (lipoNTs) CDP-choline (CDP-CHO), CDP-ethanolamine (CDP-ETH), and CDP-diacylglycerol 16:0/16:0 (CDP-DAG) as therapeutics in a mouse model of asthma (dust mite/ragweed/Aspergillus fumigatus [DRA] triple antigen exposure) (Chung S, et al. Oncotarget 2016 7:17532-17546).
(§2) To induce asthma, adult female BALB/c mice (n=4-5 per group) were sensitized with 50 μl alum+50 μl sterile saline containing dust mite allergen (5 μg/mouse)+ragweed allergen (5 μg/mouse)+Aspergillus allergen (5 μg/mouse) by i.p. injection on days 0 and 5. Mice were then challenged intranasally with dust mite allergen (8.3 μg/mouse)+ragweed allergen ([…])+Aspergillus allergen (8.3 μg/mouse) in 30 μl saline on days 12, 13, and 14, under isoflurane anesthesia. LipoNTs were administered daily by the intraperitoneal route in 50 μl sterile saline.
(§3) Data were collected 15 days after first exposure to DRA in terminal experiments.
Airway hyperresponsiveness (AHR) was measured by the forced-oscillation method using the SciReq flexiVent computer-controlled mechanical ventilator. […] Airway resistance at each methacholine dose was quantified by the single-compartment model. […]

[5] = test system: mouse model of asthma (dust mite/ragweed/Aspergillus fumigatus [DRA] triple antigen exposure); test: BALF total and differential cell counts in DRA mouse model of asthma; type: in vivo, BALB/c mice
Experimental: as §1, §2, §3
Following flexiVent analysis, bronchoalveolar lavage was performed on all mice using 0.8 ml PBS. BALF total and differential cell counts (trypan-blue stained live cells and Giemsa-stained cytospins, respectively) were performed on cell pellets to assess inflammatory cell infiltrates. BALF eosinophil (EO), alveolar macrophage (AM), and neutrophil (PMN) counts were determined.

[6] = test system: mouse model of asthma (dust mite/ragweed/Aspergillus fumigatus [DRA] triple antigen exposure); test: BALF cytokine and chemokine content by ELISA in DRA mouse model of asthma; type: in vivo, BALB/c mice; settings: treatment days 1-14 i.p. daily, mean ± SEM
Experimental: as §1, §2, §3
BAL supernatant fluid was stored at −20° C. for subsequent measurement of cytokine and/or chemokine content by ELISA using commercially available kits in accordance with manufacturers' instructions.

[7] = 100 μg/mouse i.p. on day 5 only
[8] = i.p. daily from 1-5 days post-infection, CDP-CHO 100 μg/mouse, CDP-DAG 10 μg/mouse
[9] = i.p. daily from 1-5 days post-infection, CDP-CHO and CDP-ETH 100 μg/mouse, CDP-DAG 10 μg/mouse
[10] = ATII cells of infected mice, result in words
[11] = day 6, 100 μg/mouse i.p., daily from 1-5 days post-infection
[12] = treatment days 1-14, result in words
[13] = treatment days 1-14 i.p. daily, day 15, mean ± SEM

For `C[N+](C)(C)CCO[P@TB16](=O)(O)O[P@TB16](=O)(O)OC[C@H]1O[C@@H](n2ccc(N)nc2=O)[C@H](O)[C@@H]1O` [CDP-CHO, CDP-choline], the CST [1, 7] was 0.05 ± 0.006, the “HR (bpm)” value [1, 7] was 550 ± 10 bpm and the RBASAL [1, 7] was 1.63 ± 0.22. For the same molecule, the “SaO2 (%)” value [1, 7] was 92.9 ± 1.5 %, the “WET:DRY” value [1, 7] was 6.2 ± 0.2 and the CST [1, 8] was 0.05 ± 0.002. For the same molecule, the RBASAL [1, 8] was 1.96 ± 0.12, the “HR (bpm)” value [1, 9] was 570 ± 10 bpm and the “SaO2 (%)” value [1, 9] was 93.5 ± 1.0 %. For the same molecule, the “WET:DRY” value [1, 9] was 6.2 ± 0.4, the PaO2 ([1]; equivalent of the SaO2 increase, from approximately 65 mmHg) was “approximately 85 mmHg” and the “O2 carrying capacity of blood (CaO2)” value ([1]; equivalent of the SaO2 increase, from approximately 88%) was “approximately 97 % of normal”. For the same molecule, the SaO2 ([1]; infected mice, CDP-CHO treatment, increased from approximately 85%) was “approximately 96%”, the “Effects of single dose treatment late in infection compared with daily treatment” value ([1]; infected mice, result in words) was “as good as those of daily treatment” and the cardiac function ([1]; infected mice, result in words) was “improved cardiac function”. For the same molecule, the lung function ([1]; infected mice, result in words) was “better lung function”, the oxygenation ([1]; infected mice, result in words) was “improved oxygenation” and the pulmonary edema ([1]; infected mice, result in words) was “reduced pulmonary edema”. For the same molecule, the “ATII cell mitochondria (Mi) morphology (transmission electron micrographs)” value [2, 10] was “more electron-dense and have more normal cristae; also recorded: display normal morphology”, the “lamellar body morphology (transmission electron micrographs)” value [2, 10] was “improves lamellar body morphology” and the “ATII CELL AREA (μm^2)” value [2, 11] was 53.64 ± 5.63* μm^2. For the same molecule, the “LAMELLAR BODIES/CELL” value [2, 11] was 8.1 ± 1.16, the “LAMELLAR BODY AREA (μm^2)” value [2, 11] was 0.41 ± 0.04* μm^2 and the MITOCHONDRIAL/CELL [2, 11] was 14.5 ± 1.78. The “MIT[…] (μm^2)” value [2, 11] was 0.34 ± 0.01* μm^2, the “BALF ALVEOLAR MACS (×10^6/ml)” value (influenza-infected mice) was 1.08 ± 0.21 ×10^6/ml and the “BALF NEUTROPHILS (×10^6/ml)” value (influenza-infected mice) was 0.45 ± 0.07 ×10^6/ml. The “BALF PC” value (influenza-infected mice) was 1.61 ± 0.45, the “VIRAL TITER (log PFU/g)” value (influenza-infected mice) was 5.32 ± 0.07 log PFU/g and the “MITOCHONDRIAL MEMBRANE POTENTIAL (ψm; DilC1(5) MCF)” value [3] was 10.14 ± 2.3. The “MIT[…] PRODUCTION” value [3] was 36.91 ± 6.82, the “DRA-induced AHR” value [4, 12] was “does not attenuate” and the “RMAX (cmH2O · s/ml)” value ([4]; treatment days 1-14 i.p. daily, CDP-CHO, CDP-ETH 5 mg/kg, CDP-DAG 0.5 mg/kg, peak airway resistance at 50 mg/ml methacholine, day 15, mean ± SEM) was 2.65 ± 0.06 cmH2O · s/ml. The “anti-inflammatory effect (BALF leukocyte counts)” value [5, 12] was “decreases BALF EO and AM counts”, the “BALF AMs (×10^6)” value [5, 13] was 0.14 ± 0.03 ×10^6 and the “BALF EOs (×10^6)” value [5, 13] was 0.26 ± 0.03 ×10^6. For the same molecule, the “BALF PMNs (×10^6)” value [5, 13] was 0.1 ± 0.03 ×10^6, the “CCL-11 (pg/ml), also known as eotaxin-1” value [6] was 18 ± 8 pg/mL and the “IL-5” value [6] was 16 ± 5 pg/mL. The “IL-17” value [6] was 5 ± 1 pg/mL.
`NCCO[P@SP3](=O)(O)O[P@SP3](=O)(O)OC[C@H]1O[C@@H](n2ccc(N)nc2=O)[C@H](O)[C@@H]1O` [CDP-ETH, CDP-ethanolamine] was tested, and the “HR (bpm)” value [1, 9] was 540 ± 20 bpm, the “SaO2 (%)” value [1, 9] was 91.1 ± 1.5% and the “WET:DRY” value [1, 9] was 6.5 ± 0.4.
CDP-diacylglycerol [CDP-DAG] was tested, and the “HR (bpm)” value [1, 9] was 600 ± 10 bpm, the “SaO2 (%)” value [1, 9] was 95.2 ± 1.6 % and the “WET:DRY” value [1, 9] was 5.8 ± 0.1.
